Columns and labels:
Format in all cases: cell-based
[1] = biological target: T1, human TLR7 (Homo sapiens, UniProt Q9NYK1); assay: TLR7 inhibition reporter assay (HEK-Blue cells, SEAP reporter, gardiquimod stimulation); conditions: HEK-Blue cells overexpressing human TLR7, SEAP reporter, gardiquimod 7.5 μM
T1 construct: host or cells: HEK-Blue cells (HEK293-derived reporter line)
T1 sequence (Q9NYK1 27-1049): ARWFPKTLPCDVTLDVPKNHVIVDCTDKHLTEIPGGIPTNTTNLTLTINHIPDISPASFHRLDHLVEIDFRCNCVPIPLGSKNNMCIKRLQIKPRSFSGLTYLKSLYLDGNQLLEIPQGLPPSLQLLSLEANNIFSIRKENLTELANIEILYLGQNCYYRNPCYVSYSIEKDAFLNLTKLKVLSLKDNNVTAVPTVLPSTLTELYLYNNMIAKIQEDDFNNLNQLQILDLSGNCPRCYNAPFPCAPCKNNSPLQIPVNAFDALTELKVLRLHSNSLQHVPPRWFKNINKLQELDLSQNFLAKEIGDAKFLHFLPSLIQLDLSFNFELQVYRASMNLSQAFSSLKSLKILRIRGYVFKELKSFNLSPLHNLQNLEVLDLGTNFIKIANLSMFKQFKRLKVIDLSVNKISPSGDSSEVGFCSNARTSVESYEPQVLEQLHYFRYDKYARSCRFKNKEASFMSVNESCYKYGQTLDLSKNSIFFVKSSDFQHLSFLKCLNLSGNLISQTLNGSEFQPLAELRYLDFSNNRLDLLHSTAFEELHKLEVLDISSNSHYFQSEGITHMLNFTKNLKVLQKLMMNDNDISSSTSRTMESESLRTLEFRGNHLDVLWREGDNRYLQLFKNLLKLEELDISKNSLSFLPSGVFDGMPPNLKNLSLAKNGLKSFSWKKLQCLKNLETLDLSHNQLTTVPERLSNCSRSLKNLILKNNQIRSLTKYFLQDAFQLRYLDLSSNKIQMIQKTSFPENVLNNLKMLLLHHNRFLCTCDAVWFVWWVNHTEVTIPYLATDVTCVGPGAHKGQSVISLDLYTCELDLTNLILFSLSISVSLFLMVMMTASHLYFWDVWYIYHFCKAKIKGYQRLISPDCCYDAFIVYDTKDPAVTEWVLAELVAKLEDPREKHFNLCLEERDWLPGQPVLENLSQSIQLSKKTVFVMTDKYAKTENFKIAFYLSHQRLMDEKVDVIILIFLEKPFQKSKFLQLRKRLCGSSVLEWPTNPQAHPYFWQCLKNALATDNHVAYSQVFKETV
Method in brief: (§1)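 After 22 h at 37 °C, SEAP secretion was measured from human TLR7-, TLR8- or TLR9-expressing HEK-Blue reporter cells given compound (0.05 nM–50 μM) 30 min before agonist: 7.5 μM gardiquimod, 15.9 μM R848 or 5 nM ODN2006 respectively. Percent inhibition referenced to agonist-plus-DMSO and known-inhibitor wells.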

[2] = biological target: T2, human TLR8 (Homo sapiens, UniProt Q9NR97); assay: TLR8 inhibition reporter assay (HEK-Blue cells, SEAP reporter, R848 stimulation); conditions: HEK-Blue cells overexpressing human TLR8, SEAP reporter, R848 15.9 μM
T2 construct: host or cells: HEK-Blue cells (HEK293-derived reporter line)
T2 sequence (Q9NR97 27-1041): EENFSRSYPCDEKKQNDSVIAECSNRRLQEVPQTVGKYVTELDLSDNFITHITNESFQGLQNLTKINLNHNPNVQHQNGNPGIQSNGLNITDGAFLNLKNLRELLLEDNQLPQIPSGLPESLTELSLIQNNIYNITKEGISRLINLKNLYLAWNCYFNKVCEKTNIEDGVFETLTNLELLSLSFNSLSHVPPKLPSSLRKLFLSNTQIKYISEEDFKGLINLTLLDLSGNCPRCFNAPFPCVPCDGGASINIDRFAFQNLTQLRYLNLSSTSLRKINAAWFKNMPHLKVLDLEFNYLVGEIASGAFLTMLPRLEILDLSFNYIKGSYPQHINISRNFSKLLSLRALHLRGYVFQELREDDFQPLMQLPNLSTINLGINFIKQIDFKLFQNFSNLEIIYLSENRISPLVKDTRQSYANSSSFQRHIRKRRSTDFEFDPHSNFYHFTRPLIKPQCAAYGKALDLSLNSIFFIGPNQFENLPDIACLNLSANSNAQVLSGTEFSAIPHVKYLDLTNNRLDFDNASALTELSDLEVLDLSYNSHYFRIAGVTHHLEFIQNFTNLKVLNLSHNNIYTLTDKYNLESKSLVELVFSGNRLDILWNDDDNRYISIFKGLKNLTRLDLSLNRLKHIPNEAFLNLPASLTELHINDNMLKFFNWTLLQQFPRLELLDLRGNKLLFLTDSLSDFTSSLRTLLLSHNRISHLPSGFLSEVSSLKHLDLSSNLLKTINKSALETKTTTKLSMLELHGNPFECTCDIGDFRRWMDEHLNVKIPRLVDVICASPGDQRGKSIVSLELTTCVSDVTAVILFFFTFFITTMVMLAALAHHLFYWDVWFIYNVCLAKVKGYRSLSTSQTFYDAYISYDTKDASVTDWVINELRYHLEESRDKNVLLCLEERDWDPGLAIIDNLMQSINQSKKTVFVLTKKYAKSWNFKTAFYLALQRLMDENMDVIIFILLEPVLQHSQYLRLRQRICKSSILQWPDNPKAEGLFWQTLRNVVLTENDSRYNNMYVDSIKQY
Method in brief: as §1

[3] = biological target: T3, human TLR9 (Homo sapiens, UniProt Q9NR96); assay: TLR9 inhibition reporter assay (HEK-Blue cells, SEAP reporter, ODN2006 stimulation); conditions: HEK-Blue cells overexpressing human TLR9, SEAP reporter, ODN2006 5 nM
T3 construct: host or cells: HEK-Blue cells (HEK293-derived reporter line)
T3 sequence (Q9NR96 26-1032): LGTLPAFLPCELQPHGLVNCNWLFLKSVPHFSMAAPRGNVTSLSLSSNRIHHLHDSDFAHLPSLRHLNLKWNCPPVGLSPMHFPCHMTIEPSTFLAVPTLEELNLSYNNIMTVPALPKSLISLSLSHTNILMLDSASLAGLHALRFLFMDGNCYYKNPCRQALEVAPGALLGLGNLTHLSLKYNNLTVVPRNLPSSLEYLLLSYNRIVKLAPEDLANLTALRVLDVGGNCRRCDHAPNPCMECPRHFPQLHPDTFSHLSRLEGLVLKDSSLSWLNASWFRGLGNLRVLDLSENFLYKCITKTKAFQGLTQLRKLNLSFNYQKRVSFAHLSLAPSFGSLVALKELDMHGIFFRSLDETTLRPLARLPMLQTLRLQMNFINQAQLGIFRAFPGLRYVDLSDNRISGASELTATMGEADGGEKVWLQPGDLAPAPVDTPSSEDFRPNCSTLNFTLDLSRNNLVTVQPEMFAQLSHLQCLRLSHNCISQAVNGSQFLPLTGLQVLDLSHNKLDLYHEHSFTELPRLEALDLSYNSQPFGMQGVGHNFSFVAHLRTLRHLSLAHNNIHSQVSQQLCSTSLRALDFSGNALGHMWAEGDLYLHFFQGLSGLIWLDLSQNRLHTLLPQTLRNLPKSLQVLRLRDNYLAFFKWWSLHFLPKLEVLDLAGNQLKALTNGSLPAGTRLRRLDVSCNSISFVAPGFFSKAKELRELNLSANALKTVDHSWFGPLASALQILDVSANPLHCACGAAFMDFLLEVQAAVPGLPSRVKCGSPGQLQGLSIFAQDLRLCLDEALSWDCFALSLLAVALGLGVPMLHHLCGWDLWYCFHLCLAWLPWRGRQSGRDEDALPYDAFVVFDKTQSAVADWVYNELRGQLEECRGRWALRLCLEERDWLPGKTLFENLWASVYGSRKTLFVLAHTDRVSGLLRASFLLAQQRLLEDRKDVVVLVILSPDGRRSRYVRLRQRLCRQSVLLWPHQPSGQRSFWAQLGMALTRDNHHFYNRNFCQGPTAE
Method in brief: as §1

Compound	IC50 [1] [µM]	IC50 [2] [µM]	IC50 [3] [µM]
CNC(=O)CN1CCC(c2ccc3[nH]c(-c4cc(C)c5nccn5n4)c(C(C)C)c3c2)CC1 [Example 448, 2-(4-(3-isopropyl-2-(8-methylimidazo[1,2-b]pyridazin-6-yl)-1H-indol-5-yl)piperidin-1-yl)-N-methylacetamide]	< 0.1	< 0.1	1 to 50
CC(C)c1c(-c2ccc3cncn3c2)[nH]c2ccc(C3CCNCC3)cc12 [Example 183, 6-(3-isopropyl-5-(piperidin-4-yl)-1H-indol-2-yl)imidazo[1,5-a]pyridine]	0.1 to 1	0.1 to 1	1 to 50
CC(C)c1c(-c2ccnc3[nH]ncc23)[nH]c2cc(F)c(C3CCN(CC4CCN(C(C)C)CC4)CC3)cc12 [Example 966, 4-(6-fluoro-3-isopropyl-5-(1-((1-isopropylpiperidin-4-yl)methyl)piperidin-4-yl)-1H-indol-2-yl)-1H-pyrazolo[3,4-b]pyridine]	< 0.1	< 0.1	< 0.1
CC(C)c1c(-c2ccnc3[nH]ncc23)[nH]c2ccc(C3CCN(C(=O)C[C@H](C)N)CC3)cc12 [Example 637, (S)-3-amino-1-(4-(3-isopropyl-2-(1H-pyrazolo[3,4-b]pyridin-4-yl)-1H-indol-5-yl)piperidin-1-yl)butan-1-one]	< 0.1	< 0.1	1 to 50
CC(C)c1c(-c2cnc3nn(C)cc3c2)[nH]c2ccc(C3CCN(CC(C)(C)O)CC3)cc12 [Example 765, 1-(4-(3-isopropyl-2-(2-methyl-2H-pyrazolo[3,4-b]pyridin-5-yl)-1H-indol-5-yl)piperidin-1-yl)-2-methylpropan-2-ol]	0.1 to 1	1 to 50	1 to 50
CNC(=O)CN1CCC(c2ccc3[nH]c(-c4cc(C)c5nccnc5c4)c(C(C)C)c3c2)CC1 [Example 394, 2-(4-(3-isopropyl-2-(8-methylquinoxalin-6-yl)-1H-indol-5-yl)piperidin-1-yl)-N-methylacetamide]	< 0.1	0.1 to 1	1 to 50
CCc1c(-c2ccnc3[nH]ccc23)[nH]c2ccc(C3CCNCC3)cc12 [Example 236, 4-(3-ethyl-5-(piperidin-4-yl)-1H-indol-2-yl)-1H-pyrrolo[2,3-b]pyridine]	< 0.1	< 0.1	0.1 to 1
Cc1c(-c2[nH]c3ccc(C4CCN(C(=O)CCN5CCOCC5)CC4)cc3c2C(C)C)cn2nnnc2c1C [Example 619, 1-(4-(2-(7,8-dimethyltetrazolo[1,5-a]pyridin-6-yl)-3-isopropyl-1H-indol-5-yl)piperidin-1-yl)-3-morpholinopropan-1-one]	< 0.1	< 0.1	1 to 50
CC(=O)NCCNCC(=O)N1CCC(c2ccc3[nH]c(-c4ccnc5[nH]ncc45)c(C(C)C)c3c2)CC1 [Example 573, N-(2-((2-(4-(3-isopropyl-2-(1H-pyrazolo[3,4-b]pyridin-4-yl)-1H-indol-5-yl)piperidin-1-yl)-2-oxoethyl)amino)ethyl)acetamide]	< 0.1	< 0.1	1 to 50
CC(C)c1c(-c2ccnc3[nH]ncc23)[nH]c2ccc(C3CCN(Cc4c[nH]cn4)CC3)cc12 [Example 870, 4-(5-(1-((1H-imidazol-4-yl)methyl)piperidin-4-yl)-3-isopropyl-1H-indol-2-yl)-1H-pyrazolo[3,4-b]pyridine]	< 0.1	< 0.1	0.1 to 1
CCc1c(-c2ccnc3[nH]ncc23)[nH]c2ccc(C3CCN(CCNC)CC3)cc12 [Example 654, 2-(4-(3-ethyl-2-(1H-pyrazolo[3,4-b]pyridin-4-yl)-1H-indol-5-yl)piperidin-1-yl)-N-methylethan-1-amine]	< 0.1	< 0.1	0.1 to 1
COc1cc(-c2[nH]c3ccc(C4CCN(CC(N)=O)CC4)cc3c2C(C)C)nn2ncnc12 [Example 284, 2-(4-(3-isopropyl-2-(8-methoxy-[1,2,4]triazolo[1,5-b]pyridazin-6-yl)-1H-indol-5-yl)piperidin-1-yl)acetamide]	< 0.1	< 0.1	1 to 50
Cc1c(-c2ccnn3ccnc23)[nH]c2ccc(C3CCN(C4CCN(C(C)C)CC4)CC3)cc12 [Example 807, 8-(5-(1′-isopropyl-[1,4′-bipiperidin]-4-yl)-3-methyl-1H-indol-2-yl)imidazo[1,2-b]pyridazine]	1 to 50	1 to 50	0.1 to 1
CC(C)c1c(-c2ccn3nncc3c2)[nH]c2ccc(C3CCN(C4CCOCC4)CC3)cc12 [Example 696, 5-(3-isopropyl-5-(1-(tetrahydro-2H-pyran-4-yl)piperidin-4-yl)-1H-indol-2-yl)-[1,2,3]triazolo[1,5-a]pyridine]	< 0.1	0.1 to 1	1 to 50

From patent publication US11739098B2 (BRISTOL-MYERS SQUIBB COMPANY, priority 2017, dated 2023)
